Tested on: bronchitic and cough response induced by citric acid
Assay: Bronchitic and cough response induced by citric acid in guinea pigs
Type: in vivo, guinea pig
Details: compared with osanetant
Excerpt: In guinea pigs, the effect on the bronchitic and cough response induced by citric acid has been studied using the model described by S. Daoui et al., in Am. J. Resp. Crit. Care Med., 1998, 158, 42-48. In this test, the Example 10 compound has shown an activity 10 times greater than that of osanetant.

CN(C)C(=O)NC1(c2ccccc2)CCN(CCCC2(c3ccc(Cl)c(Cl)c3)CCCN(C(=O)c3ccccc3)C2)CC1 (stereo not shown) [Example 10]
activity relative to osanetant: 10 times

Reference: US6465489B1, “Ureidopiperidine derivatives as selective human NK3 receptor antagonists” (Sanofi-Synthelabo, priority 1998, dated 2002)
